Values after ≈ are worked out from the molar mass of the structure shown. Active and inactive are the calls of the source. No cut-off for these calls is given here.
Tests used:
[1] = biological target: T1, Adenosine receptor A1 (Homo sapiens, UniProt P30542); assay: Displacement of [3H]DPCPX from human adenosine A1 receptor expressed in HEK293 cells; type: cell-based
T1 sequence (P30542 whole entry): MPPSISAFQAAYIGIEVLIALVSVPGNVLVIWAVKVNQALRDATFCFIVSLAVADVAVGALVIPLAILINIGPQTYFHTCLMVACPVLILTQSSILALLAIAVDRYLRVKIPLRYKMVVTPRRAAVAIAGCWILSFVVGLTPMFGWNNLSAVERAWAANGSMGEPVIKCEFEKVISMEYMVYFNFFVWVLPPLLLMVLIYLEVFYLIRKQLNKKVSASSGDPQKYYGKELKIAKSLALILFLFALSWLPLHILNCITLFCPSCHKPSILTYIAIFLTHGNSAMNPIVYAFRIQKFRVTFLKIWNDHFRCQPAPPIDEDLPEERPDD

[2] = species: Homo sapiens; assay: Selectivity ratio of Ki for human adenosine A1 receptor to Ki for human adenosine A2A receptor
[3] = Metabolic stability in human liver microsomes assessed as intrinsic clearance by LC-MS/MS analysis; type: ADME, Microsome
[4] = Metabolic stability in rat liver microsomes assessed as intrinsic clearance by LC-MS/MS analysis; type: ADME, Microsome
[5] = Permeability from apical to basolateral side of the human Caco-2 membrane by LC-MS/MS analysis; type: ADME, cell-based; settings: read-out: permeability
[6] = Aqueous solubility in phosphate-buffered saline at pH 7.4; type: physicochemical
[7] = biological target: Adenosine receptor A2a (Rattus norvegicus, UniProt P30543); assay: Displacement of [3H][…] from rat adenosine A2A receptor expressed in CHO cells; type: cell-based
Adenosine receptor A2a (Rattus norvegicus, UniProt P30543), sequence (P30543 whole entry): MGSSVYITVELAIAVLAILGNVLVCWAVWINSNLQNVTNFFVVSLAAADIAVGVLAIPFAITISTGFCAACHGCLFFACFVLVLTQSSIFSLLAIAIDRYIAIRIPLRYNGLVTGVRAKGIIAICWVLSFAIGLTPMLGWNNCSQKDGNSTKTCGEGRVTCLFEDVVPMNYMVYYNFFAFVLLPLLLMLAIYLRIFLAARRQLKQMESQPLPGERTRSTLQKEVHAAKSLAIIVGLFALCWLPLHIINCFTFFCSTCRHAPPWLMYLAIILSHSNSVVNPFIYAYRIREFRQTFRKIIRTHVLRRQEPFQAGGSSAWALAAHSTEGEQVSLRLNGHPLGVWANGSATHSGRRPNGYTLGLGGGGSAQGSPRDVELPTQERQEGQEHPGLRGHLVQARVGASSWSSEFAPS

[8] = system: Rattus norvegicus; assay: Inhibition of haloperidol-induced catalepsy in rat at 30 mg/kg, po after 2 hrs; type: functional
[9] = biological target: T2, Adenosine receptor A2a (Homo sapiens, UniProt P29274); assay: Antagonist activity at human adenosine A2A receptor expressed in CHO cells assessed as inhibition of CGS-21680-induced cAMP production; type: functional, cell-based
T2 sequence (P29274 whole entry): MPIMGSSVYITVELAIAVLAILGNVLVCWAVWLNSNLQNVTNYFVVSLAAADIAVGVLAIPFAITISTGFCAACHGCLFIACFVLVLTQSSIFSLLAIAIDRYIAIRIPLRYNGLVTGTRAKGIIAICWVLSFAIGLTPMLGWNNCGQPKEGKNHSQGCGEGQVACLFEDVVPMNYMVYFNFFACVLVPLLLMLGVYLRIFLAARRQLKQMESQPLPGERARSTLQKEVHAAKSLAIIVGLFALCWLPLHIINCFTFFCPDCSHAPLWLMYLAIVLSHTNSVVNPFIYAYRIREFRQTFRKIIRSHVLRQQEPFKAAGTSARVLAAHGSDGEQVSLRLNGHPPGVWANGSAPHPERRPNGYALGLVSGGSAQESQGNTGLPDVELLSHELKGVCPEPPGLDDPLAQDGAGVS

[10] = Lipophilicity, log D at pH 7.4; type: physicochemical; settings: buffer
[11] = biological target: T2, Adenosine receptor A2a; assay: Displacement of [3H][…] from human adenosine A2A receptor expressed in HEK293 cells; type: cell-based
[12] = biological target: T3, Cytochrome P450 3A4 (Homo sapiens, UniProt P08684)
T3 sequence (P08684 whole entry): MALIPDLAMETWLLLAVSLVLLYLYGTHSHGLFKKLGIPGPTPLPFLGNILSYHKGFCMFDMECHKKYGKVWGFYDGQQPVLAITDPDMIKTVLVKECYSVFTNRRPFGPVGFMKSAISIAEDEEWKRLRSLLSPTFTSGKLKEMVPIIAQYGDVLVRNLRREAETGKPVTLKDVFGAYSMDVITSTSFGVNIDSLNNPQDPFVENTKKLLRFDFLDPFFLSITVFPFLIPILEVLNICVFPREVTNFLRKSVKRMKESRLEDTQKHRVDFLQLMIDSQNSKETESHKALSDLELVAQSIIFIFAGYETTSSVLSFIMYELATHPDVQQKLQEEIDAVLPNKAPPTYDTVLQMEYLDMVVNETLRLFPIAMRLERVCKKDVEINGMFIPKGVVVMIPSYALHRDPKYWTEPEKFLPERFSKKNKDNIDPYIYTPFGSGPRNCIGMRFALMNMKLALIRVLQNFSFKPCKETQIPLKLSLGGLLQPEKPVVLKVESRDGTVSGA
Description: Inhibition of CYP3A4 in human liver microsomes by LC-MS/MS analysis

[13] = Plasma concentration in rat at 10 mg/kg, po after 2 hrs; type: ADME, organism-based; set-up: dose 10 mg/kg, route oral
[14] = Drug concentration in rat brain at 10 mg/kg, po after 2 hrs; type: ADME, organism-based; set-up: dose 10 mg/kg, route oral; settings: read-out: Drug uptake
[15] = AUC (0 to 24 hrs) in rat plasma at 10 mg/kg, po; type: ADME, organism-based; set-up: time < 24 hr, dose 10 mg/kg, route oral
[16] = biological target: Voltage-gated inwardly rectifying potassium channel KCNH2 (Homo sapiens, UniProt Q12809); assay: Inhibition of human ERG by electrophysiology assay
Voltage-gated inwardly rectifying potassium channel KCNH2, sequence (Q12809 whole entry): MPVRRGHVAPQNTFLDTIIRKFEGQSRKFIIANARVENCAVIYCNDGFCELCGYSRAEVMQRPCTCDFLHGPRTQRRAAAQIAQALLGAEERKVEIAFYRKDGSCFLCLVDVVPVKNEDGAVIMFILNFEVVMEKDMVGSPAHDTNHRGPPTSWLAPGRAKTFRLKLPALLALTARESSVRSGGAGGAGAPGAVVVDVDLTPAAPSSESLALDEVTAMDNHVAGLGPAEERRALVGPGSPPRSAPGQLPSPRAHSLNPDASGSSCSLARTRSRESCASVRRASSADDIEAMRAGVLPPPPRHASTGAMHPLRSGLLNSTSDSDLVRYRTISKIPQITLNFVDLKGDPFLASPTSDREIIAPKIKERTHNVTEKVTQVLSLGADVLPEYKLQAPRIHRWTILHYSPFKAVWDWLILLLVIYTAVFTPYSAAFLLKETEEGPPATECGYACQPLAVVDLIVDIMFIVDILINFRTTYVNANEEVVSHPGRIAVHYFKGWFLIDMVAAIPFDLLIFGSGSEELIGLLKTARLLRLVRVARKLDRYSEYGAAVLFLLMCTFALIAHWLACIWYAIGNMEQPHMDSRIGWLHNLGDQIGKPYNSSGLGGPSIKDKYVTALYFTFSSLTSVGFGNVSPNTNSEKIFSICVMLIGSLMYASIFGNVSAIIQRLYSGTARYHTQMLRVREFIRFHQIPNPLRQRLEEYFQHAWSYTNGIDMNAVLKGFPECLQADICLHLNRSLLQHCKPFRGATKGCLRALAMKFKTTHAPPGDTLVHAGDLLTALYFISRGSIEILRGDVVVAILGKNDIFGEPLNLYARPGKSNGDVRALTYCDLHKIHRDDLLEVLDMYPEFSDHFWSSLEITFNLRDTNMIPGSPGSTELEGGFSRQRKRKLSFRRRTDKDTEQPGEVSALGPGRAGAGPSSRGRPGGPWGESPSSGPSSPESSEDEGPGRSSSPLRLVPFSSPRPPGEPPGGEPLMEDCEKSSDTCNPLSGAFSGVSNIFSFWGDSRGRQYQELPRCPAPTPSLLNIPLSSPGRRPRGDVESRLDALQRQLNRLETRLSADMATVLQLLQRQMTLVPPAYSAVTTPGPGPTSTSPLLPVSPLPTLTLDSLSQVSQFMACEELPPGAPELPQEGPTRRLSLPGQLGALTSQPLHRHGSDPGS

[17] = system: Rattus norvegicus; assay: Inhibition of haloperidol-induced catalepsy in rat at 10 mg/kg, po after 2 hrs; type: functional; set-up: scale not given: the % may be the effect or the level left
[18] = species: Rattus norvegicus; assay: Inhibition of haloperidol-induced catalepsy in rat assessed as minimal effective dose; type: functional; settings: read-out: MED
[19] = system: Rattus norvegicus; assay: Inhibition of haloperidol-induced catalepsy in rat at 1 mg/kg, po; type: functional, organism-based; set-up: dose 1 mg/kg
[20] = Aqueous solubility at pH >= […]; type: physicochemical; settings: buffer
[21] = system: Rattus norvegicus; assay: Inhibition of haloperidol-induced catalepsy in rat at 3 mg/kg, po; type: functional, organism-based; set-up: dose 3 mg/kg
[22] = system: Liver microsomes; assay: Induction of glutathione adducts formation in human liver microsomes; set-up: species or system Microsome
[23] = system: Rattus norvegicus; assay: Potentiation of L-dopa-induced rotational behavior in unilaterally 6-hydroxydopamine-lesioned po dosed Wistar rat pretreated 30 mins before L-dopa challenge measured over 5 hrs; type: functional, organism-based
[24] = system: Rattus norvegicus; assay: Potentiation of L-dopa-induced rotational behavior in unilaterally 6-hydroxydopamine-lesioned po dosed Wistar rat assessed as minimal effective dose pretreated 30 mins before L-dopa challenge measured over 5 hrs; type: functional; settings: read-out: MED
[25] = AUC ((0 to 24 hrs)) in mouse at 300 mg/kg, po; type: ADME, organism-based; set-up: time < 24 hr, dose 300 mg/kg, route oral; settings: plasma
[26] = Solubility at pH 3.7; type: physicochemical; settings: buffer
[27] = AUC ((0 to 24 hrs)) in dog at 30 mg/kg, po; type: ADME, organism-based, Canis lupus familiaris; set-up: time < 24 hr, dose 30 mg/kg, route oral; settings: plasma
[28] = Dissociation constant, pKa of the compound; type: physicochemical
[29] = biological target: T3, Cytochrome P450 3A4; assay: Inhibition of recombinant CYP3A4-catalyzed dealkylation of BFC assessed as formation of 7HFC by microplate fluorescence technique; type: ADME; settings: recombinant enzyme
[30] = Permeability across MDCK cell membrane by cell-based MDR assay; type: ADME, Canis lupus familiaris; settings: dog, MDCK-MDR1; read-out: permeability

Compound	Ki [1] [nM]	Ratio Ki [2]	Ki [11] [nM]	IC50 [12] [nM]	CLint scaled [3] [mL/min/kg]	CLint scaled [4] [mL/min/kg]	Ki [7] [nM]	IC50 [9] [nM]	concentration at 2 h [13] [ng/mL]	concentration at 2 h [14] [ng/g]	minimal effective dose [18] [mg/kg]	also measured
CC(=O)Nc1cc(-c2cccc(N3CCCOCC3)n2)nc(-n2nc(C)cc2C)n1	280	121	2.3	> 20000	94	1000	–	–	–	–	–	–
COC1CCN(c2cccc(-c3cc(NC(C)=O)nc(-n4nc(C)cc4C)n3)n2)CC1	85	–	0.44	–	41	540	–	–	–	–	1	Activity [17]: 88%; Activity [19]: Active; Activity [22]: Not Active; Activity [23]: Dose-dependent effect; minimal effective dose [24]: 3 mg/kg; AUC(0-t) at 24 h [25]: 25700 ng·h/mL; solubility [26]: 1000 µg/mL (≈ 2370 µM); AUC(0-t) at 24 h [27]: 3400 ng·h/mL
CCC(=O)Nc1cc(-c2cncc(OC)c2)nc(-n2nc(C)cc2C)n1	70	39	1.8	17000	29	110	21	31	860	1380	1	Activity [17]: 69%; logD [10]: 2.8; pKa [28]: 3.6
CC(=O)Nc1cc(-c2cccc(N3CCCCC3)n2)nc(-n2nc(C)cc2C)n1	31	54	0.56	–	–	–	–	–	–	–	–	–
COc1cncc(-c2cc(NC(=O)CN3CCOCC3)nc(-n3nc(C)cc3C)n2)c1	940	235	4	> 20000	3	150	30	49	–	–	–	Activity [8]: inactive; logD [10]: 2.4; pKa [28]: 5.3
CC(=O)Nc1cc(-c2cccc(N3CCOCC3)n2)nc(-n2nc(C)cc2C)n1	130	155	0.83	> 20000	3	25	10	13	150	170	3	Activity ([16]; human): Not Active; solubility [6]: 140 µg/mL (≈ 356 µM); Activity [17]: 55%; pKa [28]: 2.9; Activity [29]: Not Active
CC(=O)Nc1cc(-c2cncc(N3CCOCC3)c2)nc(-n2nc(C)cc2C)n1	220	74	3	> 20000	12	150	–	–	–	–	–	–
CC(=O)Nc1cc(-c2ccnc(N3CCOCC3)c2)nc(-n2nc(C)cc2C)n1	580	48	12	–	–	–	–	–	–	–	–	–
COC1CN(c2cccc(-c3cc(NC(C)=O)nc(-n4nc(C)cc4C)n3)n2)C1	34	72	0.47	11000	25	160	1.5	18	150	560	–	solubility [6]: 30 µg/mL (≈ 76.2 µM); logD [10]: 3.6; pKa [28]: 3.4
CC(=O)Nc1cc(-c2cccc(N3CCCC3)n2)nc(-n2nc(C)cc2C)n1	7.2	28	0.26	> 20000	–	–	–	–	–	–	–	–
COc1cc(OC)cc(-c2cc(NC(C)=O)nc(-n3nc(C)cc3C)n2)c1	22	116	0.19	380	9.3	110	3	17	1330	1150	1	Papp A→B [5]: 2.4 ×10⁻⁶ cm/s; solubility [6]: < 20 µg/mL; Activity [17]: 49%; logD [10]: 3.2
CC(=O)Nc1cc(-c2cccc(N(C)C)n2)nc(-n2nc(C)cc2C)n1	81	133	0.61	25000	54	1600	20	156	290	180	30	–
CC(=O)Nc1cc(-c2cccc(N3CCN(C)CC3)n2)nc(-n2nc(C)cc2C)n1	120	175	0.71	> 20000	3	25	7	7	53	91	–	IC50 [16]: 540 nM; solubility [6]: 240 µg/mL (≈ 590 µM); Activity [8]: inactive; pKa [28]: 7.6; Papp [30]: 15.4 ×10⁻⁶ cm/s

The next lines start with results.

Ki [1] [nM]	Ratio Ki [2]	Ki [11] [nM]	IC50 [12] [nM]	Compound	CLint scaled [3] [mL/min/kg]	CLint scaled [4] [mL/min/kg]	Ki [7] [nM]	IC50 [9] [nM]	concentration at 2 h [13] [ng/mL]	concentration at 2 h [14] [ng/g]	minimal effective dose [18] [mg/kg]	also measured
110	187	0.6	> 20000	COc1cccc(-c2cc(NC(C)=O)nc(-n3nc(C)cc3C)n2)c1F	36	360	12	32	–	–	–	Papp A→B [5]: 26 ×10⁻⁶ cm/s; solubility [6]: 170 µg/mL (≈ 478 µM); Activity [8]: inactive; logD [10]: 2
195	67	2.9	18000	CC(=O)Nc1cc(-c2cncc(O)c2)nc(-n2nc(C)cc2C)n1	41	140	32	64	264	154	–	Activity [8]: inactive; logD [10]: 2.4
620	79	7.8	20000	CCOC(=O)Nc1cc(-c2cncc(OC)c2)nc(-n2nc(C)cc2C)n1	38	59	82	196	–	–	–	Activity [8]: inactive
4600	53	87	–	CC(=O)Nc1cc(-c2cc(N3CCOCC3)ccn2)nc(-n2nc(C)cc2C)n1	–	–	–	–	–	–	–	–
190	82	2.3	18000	COc1cncc(-c2cc(NC(C)=O)nc(-n3nc(C)cc3C)n2)c1	35	120	62	57	–	–	1	AUC(0-t) at 24 h [15]: 1430 ng·h/mL; IC50 [16]: 24000 nM; Activity [17]: 64%; Activity [19]: Active; solubility [20]: < 10 µg/mL; Activity [21]: Active
65	71	0.92	740	COc1cccc(-c2cc(NC(C)=O)nc(-n3nc(C)cc3C)n2)c1	–	–	–	–	–	–	–	–
440	57	7.9	> 20000	CC(=O)Nc1cc(-c2cccc(N)n2)nc(-n2nc(C)cc2C)n1	–	–	–	–	–	–	–	–
780	106	7.4	16000	COC(=O)Nc1cc(-c2cncc(OC)c2)nc(-n2nc(C)cc2C)n1	16	93	68	167	–	–	10	Activity [17]: 46%
55	76	0.72	2500	COCCN(C)c1cccc(-c2cc(NC(C)=O)nc(-n3nc(C)cc3C)n2)n1	52	490	14	70	220	870	10	Activity [17]: 70%
2100	18	120	> 20000	CC(=O)Nc1cc(-c2cccnc2)nc(-n2nc(C)cc2C)n1	–	–	–	–	–	–	–	–
290	3.3	–	43000	CC(=O)Nc1cc(-c2ccccc2)nc(-n2nc(C)cc2C)n1	–	–	–	–	–	–	–	–
110	–	3.1	–	COCCOc1cncc(-c2cc(NC(C)=O)nc(-n3nc(C)cc3C)n2)c1	3	43	–	–	–	–	–	–
820	21	40	8500	CC(=O)Nc1cc(-c2ccncc2)nc(-n2nc(C)cc2C)n1	–	–	–	–	–	–	–	–

From ChEMBL document CHEMBL1152277, “Lead optimization of 4-acetylamino-2-(3,5-dimethylpyrazol-1-yl)-6-pyridylpyrimidines as A2A adenosine receptor antagonists for the treatment of Parkinson's disease” (J Med Chem, 2008)
